Data published in publication PMC10223356, “Tetrasubstituted Pyrrole Derivative Mimetics of Protein–Protein Interaction Hot-Spot Residues: A Promising Class of Anticancer Agents Targeting Melanoma Cells” (Molecules, 2023).
Converted amounts (≈) assume the structure as drawn.

Legend:
[1] = system: human colorectal carcinoma HCT-116 cells; experiment: Cell survival index (MTT + cell count) bioscreen, HCT-116; format: cell-based; details: HCT-116, 48 h, human colon cancer cell line, 48 h of incubation, mean ± SEM (n = 30)
Procedure: (§1) Cell growth inhibition activity of compounds 1, 9a–i, 10a,b, and the positive control nutlin-3a was evaluated following 48 h of incubation with increasing concentrations of the compounds (from 1.5 to 25 µM) in human cancer (A375 and HCT-116) and healthy (L6) cell lines. […] The evaluation of the “cell survival index” show a typical concentration-dependent sigmoid trend, achieving IC50 values in the low micromolar range (Figure S2).
(§2) Human epithelial melanoma A375 cells, human colorectal carcinoma HCT-116 cells, and normal rat L6 myoblast were grown in DMEM (Invitrogen, Paisley, UK) supplemented with 10% fetal bovine serum (FBS, Cambrex, Verviers, Belgium), L-glutamine (2 mM, Sigma, Milan, Italy), penicillin (100 units/mL, Sigma), and streptomycin (100 μg/mL, Sigma) and cultured in a humidified 5% carbon dioxide atmosphere at 37 °C, according to ATCC recommendations. A375 and HCT-116 were used as preclinical human cancer models in vitro, while rat L6 were used as control healthy cells.
(§3) The antiproliferative activity of 1, 9a–i, and 10a,b was investigated through the estimation of a “cell survival index”, arising from the combination of cell viability evaluation with cell counting, as previously reported. The cell survival index is calculated as the arithmetic mean between the percentage values derived from the MTT assay and the automated cell count. Cells were inoculated in 96-microwell culture plates at a density of 10^4 cells/well and allowed to grow for 24 h. The medium was then replaced with fresh medium and cells were treated for an additional 48 h with a range of concentrations (from 1.5 to 25 μM) of 1, 9a–i, and 10a,b. Using the same experimental procedure, cell cultures were also incubated with DMSO as negative controls (vehicle), as well as with cisplatin (cDDP) and nutlin-3a as positive controls for cytotoxic and antiproliferative effects, respectively. Cell viability was evaluated using the MTT assay procedure. Cell number was determined by TC20 automated cell counter (Bio-Rad, Milan, Italy), providing an accurate and reproducible total count of cells and a live/dead ratio in one step by a specific dye (trypan blue) exclusion assay. The calculation of the concentration required to inhibit the net increase in the cell number and viability by 50% (IC50) is based on plots of data (n = 6 for each experiment) and repeated five times (total n = 30). IC50 values were calculated from a dose–response curve by nonlinear regression using a curve-fitting program, GraphPad Prism 5.0, and are expressed as mean values ± SEM (n = 30) of five independent experiments.

[2] = Solubility assay in PBS by UV light scattering (precipitation point); format: physicochemical; details: for solubility at 1 min: PBS (phosphate-buffered saline), aqueous buffer, kinetic from dmso stock, PBS solution pH = 7.4, 37 °C, mean ± SEM (n = 3)
Procedure: The solubility of all compounds was evaluated in a PBS solution (phosphate-buffered saline; Sigma-Aldrich, Merck KGaA, Darmstadt, Germany, pH = 7.4) by means of UV spectroscopy.
For each compound, the precipitation point was quantified measuring the increasing of the UV absorption of PBS in the range of 600–800 nm after successive additions of aliquots of a DMSO solution at specific concentration. Because of the absence of bands in the selected UV region, the increase in absorption is due to light scattering caused by the formation of particulate in the PBS. UV absorption data were graphically reported vs. μL of the added DMSO solution (x-axis), and the precipitation point was identified as the intersect point of the bilinear fitted curve. The x coordinate of the intersect point corresponded to the microlitres of DMSO added to PBS (1.4 mL) when the precipitation occurred, from which the concentration of the molecule in PBS at the precipitation point is readily calculated.
The solubility of each molecule in PBS was quantified measuring the UV scattering in the range of 600–800 nm (JASCO UV-530 spectrophotometer, equipped with ETC-505 T temperature controller). DMSO solutions of 1, 9a, 9b, 9c, 9d, 9e, 9f, ±10b, and nutlin-3a were used at a final concentration of 2.6 mM, whereas those of 9g, 9h, and 9i were used at 1.0 mM. A total of 1400 µL of degassed PBS was placed in a quartz cuvette (o.l. 0.5 cm), equilibrated 5 min at 37 °C, and then titrated by 7–10 successive additions of 0.5 µL or 0.3 µL from the DMSO solution. Each titration was performed without removing the cuvette from the UV cell and, after each addition, the solution was equilibrated 1 min a 37 °C under gently stirring before the acquisition of the UV data. For each molecule, the solubility was expressed as the mean ± SEM (n = 3).

normal rat L6 myoblast = experiment: Cell survival index (MTT + cell count) bioscreen, L6; format: cell-based; details: healthy rat myoblast cell line, 48 h of incubation, mean ± SEM (n = 30), read-out: L6 IC50
Procedure: as §1, §2, §3

[3] = system: human epithelial melanoma A375 cells; experiment: Cell survival index (MTT + cell count) bioscreen, A375; format: cell-based; details: for IC50: A-375, human melanoma cell line, 48 h of incubation, cell survival index, mean ± SEM (n = 30); for SI (selectivity index): SI = IC50 L6/IC50 A375
Procedure: as §1, §2, §3

[4] = set-up: method as in PMID 23879262; details: 20 mM of PBS (pH = 7.4) containing 150 mM of KCl; cited from earlier work
[5] = system: human A375 melanoma cells; experiment: Apoptosis/Necrosis detection by fluorescence microscopy; format: cell-based; details: A375 cells incubated with IC50 concentrations
Source text: In order to confirm the possible activation of apoptosis, we performed fluorescence experiments to simultaneously monitor apoptotic and/or necrotic cells as well as deepen the biological effects on A375 triggered by exposure to the most bioactive derivatives under investigation (Figure 5).
Indeed, in apoptosis, PS is transferred to the outer leaflet of the plasma membrane. As a general indicator of the initial/intermediate stages of programmed cell death, the PS appearance on the cell surface can be detected as an apoptotic hallmark. Even in this circumstance, the results are very similar to those obtained with nutlin-3a.
The evaluation of apoptosis and/or necrosis induction after treatments in vitro was investigated by using the Apoptosis/Necrosis Detection kit (ab176749, Abcam, Discovery Drive, Cambridge Biomedical Campus, Cambridge, UK), which is optimized to simultaneously detect cell apoptosis (green), necrosis (red), and healthy cells (blue) by fluorescence microscopy analysis. […] As a universal indicator of the initial/intermediates stages of cell apoptosis, the appearance of PS on the cell surface can be detected before cytomorphological changes are observed. Thus, the phosphatidylserine (PS) early apoptotic sensor has green fluorescence (Ex/Em = 490/525 nm) upon binding to membrane PS. […]

solubility at 1 min [2] [µM]	Solubility fold higher than that of 1 ([2]; PBS pH 7.4, ratio of DMSO solution volumes at the precipitation points) [fold]	Volume of DMSO solution added to PBS at the precipitation point ([2]; DMSO solution 2.6 mM added to 1400 µL PBS)	Volume of DMSO solution added to PBS at the precipitation point ([2]; DMSO solution 1.0 mM added to 1400 µL PBS, Abs 640 nm)	Structure (SMILES)	IC50 [1] [µM]	CC50 (normal rat L6 myoblast) [µM]	IC50 [3] [µM]	SI (selectivity index) [3]	Solubility [4] [µM]	Activation of apoptosis (phosphatidylserine sensor, green fluorescence) [5]
3.5 ± 0.1 (≈ 1.6 µg/mL)				Cc1ccc(Cn2c(C(=O)NCc3cccc(Cl)c3)cc(C(=O)c3ccccc3)c2C)cc1 [compound 1, 4-benzoyl-N-[(3-chlorophenyl)methyl]-5-methyl-1-[(4-methylphenyl)methyl]-1H-pyrrole-2-carboxamide]	41.4 ± 6	42 ± 3	20 ± 4	2.1	≤ 6.8	
10.5 ± 0.1 (≈ 4.81 µg/mL)	2.8			Cc1c(C(=O)c2ccccc2)cc(C(=O)NCc2cccc(Cl)c2)n1Cc1ccc(N)cc1 [compound 10a, 1-(4-aminobenzyl)-4-benzoyl-N-(3-chlorobenzyl)-5-methyl-1H-pyrrole-2-carboxamide]	41.3 ± 6	55 ± 7	10 ± 4	5.6		consistent activation of apoptosis
3.9 ± 0.2 (≈ 1.8 µg/mL)		2,1 µL		Cc1c(C(=O)c2ccccc2)cc(C(=O)NCc2cccc(Cl)c2)n1Cc1ccc(F)cc1 [compound 9c, 4-Benzoyl-N-(3-chlorobenzyl)-1-(4-fluorobenzyl)-5-methyl-1H-pyrrole-2-carboxamide]	55.9 ± 7	35 ± 4	13 ± 4	2.7		consistent activation of apoptosis
< 1			1,0 µL	COc1ccc(C(=O)c2cc(C(=O)NCc3cccc(Cl)c3)n(Cc3ccc(C)cc3)c2C)cc1 [compound 9i, N-(3-chlorobenzyl)-4-(4-methoxybenzoyl)-5-methyl-1-(4-methylbenzyl)-1H-pyrrole-2-carboxamide]	> 100	66 ± 5	16 ± 6	4.2		
